Laboratory results as given in patent US5654427A, “Indolocarbazole derivatives to treat a pathological condition of the prostate” (Kyowa Hakko Kogyo Co., Ltd., priority 1995, dated 1997).
Like-named read-outs stand apart in the source and are kept apart here.

Columns and labels:
[1] = test system: Dunning R-3327 AT-2.1 prostate tumor; experiment: inhibition of growth of Dunning R-3327 AT-2.1 prostate tumor in adult male Copenhagen rats; type: in vivo, rat; conditions: 3 mg/kg/day s.c.
Text: The AT-2 tumor is a highly anaplastic cell line derived from the original slow-growing androgen-dependent Dunning R-3327 H rat prostate tumor (Issacs et al., Prostate 9:261-281, 1986). The AT-2 tumor model has been used to characterize other potential anti-prostatic cancer agents including linomide (Ichikawa et al., Cancer Research 52:3022-3028, 1992) and suramin (Morton et al., Prostate 17:327-336, 1990) which is undergoing evaluation in clinical trials for androgen-independentprostate cancer (Eisenberger et al., J. Natl. Can. Inst. 85: 611-621, 1993).
Experimental Protocol: Twenty-four inbred male Copenhagen rats were inoculated subcutaneously in the flank with 1×10^6 viable AT-2.1 tumor cells. All animals were allowed to develop tumors of approximately 2.7 cm^3 in size (approximately 14 days) before being randomized into three groups of 8 animals each. Group 1 received daily subcutaneous injections of vehicle alone (1 ml/kg body weight). […] All animals had their tumor sizes evaluated for a period of 16 days. Tumor volume was calculated using the formula (1×w^2)×0.5.

[2] = biological target: T1, trkA (Rattus norvegicus, UniProt P35739); experiment: inhibition of NGF-stimulated trk autophosphorylation (tyrosine phosphorylation) in PC12 cells, anti-phosphotyrosine Western blot; type: cell-based; conditions: for trk 100 nM (inhibition of phosphorylation) / trk 500 nM (inhibition of phosphorylation): NGF 50 ng/ml; for trk 500 nM (inhibition of phosphorylation): 500 nM compound; for trk 100 nM (inhibition of phosphorylation): key: +: Inhibited phosphorylation; -: Did not inhibit phosphorylation; for trk 500 nM (inhibition of phosphorylation): key: +: Inhibited phosphorylation; -: Did not inhibit phosphorylation
T1 construct: are rat pheochromocytoma cells that bear trkA; host or cells: PC12 rat pheochromocytoma cells
Procedure: Candidate compounds for the inhibition of prostate cell proliferation were selected according to their ability to inhibit the tyrosine kinase activity associated with the trks.
PC12 cells (ATCC #CRL1721) are rat pheochromocytoma cells that bear trkA and differentiate into sympathetic neurons when treated with NGF. […] Cells were incubated at 37° C. in a humidified atmosphere of 10% CO2 and 90% air. […] The cells in each culture were disrupted and cell lysates were prepared by standard techniques known to those skilled in the art. Each lysate was incubated with anti-trk antibody whereby immune complexes were formed. […] The immune complexes were collected on Protein A-Sepharose beads, separated by SDS-polyacrylamide gel electrophoresis (SDS-PAGE), and transferred to polyvinylidene difluoride (PVDF) membranes (Millipore Corp., Bedford, Mass.), using techniques well known to those skilled in the art. The membranes were incubated with anti-phosphotyrosine antibody, which binds to the tyrosine phosphorylated trks, but not to the un-phosphorylated form of trks. Proteins bound to anti-phosphotyrosine antibody were visualized with enhanced chemiluminescence (ECL, Amersham), and are shown as dark "spots" in FIG. 1.
Measurement of the autophosphorylation of trk provides a good index of trk tyrosine kinase activity, and thereby of trk stimulation.
Inhibition was indicated by the absence of a spot migrating with the trk marker shown at the left side of the figure. Partial inhibition was indicated by a spot of reduced size.

[3] = test system: androgen independent human prostate cancer cell lines Tsu-Pr1, DuPro-1, PC-3 and DU-145; experiment: growth inhibition of prostate cancer-derived cell lines, overall (calcein fluorescence); type: cell-based; conditions: Table 3
Procedure: (§1) Throughout the experiment the Tsu-Pr1 and Du-Pro1 cells were maintained in RPMI 1640 medium (GIBCO) containing 10% fetal bovine serum (Hyclone), 2 mM glutamine, 100 U/ml penicillin, and 100 μg/ml streptomycin. The PC-3 cells were maintained in Ham's F12K medium (Irvine Scientific) containing 10% fetal bovine serum (Hyclone), 2 mM glutamine, 100 U/ml penicillin, and 100 μg/ml streptomycin. All cell lines were maintained at 37° C. in a humidified atmosphere containing 5% CO2. The DU-145 cells were maintained in minimal essential medium (Gibco), containing 10% fetal bovine serum (Hyclone), 2 mM glutamine, and no antibiotics.
(§2) Tests for growth inhibition by the candidate compounds were conducted by the following procedure. In each well of a 96-well plate (Falcon) were placed 2,500 cells in 0.1 ml of medium. The cultures were incubated overnight after which a 0.1 ml aliquot of culture medium was added to each well. […] Other control wells received medium without any K-252a derivative compounds. Incubation was continued for three days. On day three the number of cells in each well was measured using a calcein fluorescence assay (Bozyczko-Coyne et al. J. Neurosci. Meth. 50, 205-216 (1993)).
Calcein AM (Molecular Probes, Eugene, Oreg.), an analog of the viable dye fluorescein diacetate, is taken up by cells and cleaved intracellularly to fluorescent salts that are retained by intact membranes of viable cells. This method thus provides a reliable and quantitative measurement of cell survival. Calcein AM was diluted 2× in Dulbeccos phosphate buffered saline (D-PBS) to 2× the final assay concentration (6 μM) and 100 μl was added to culture wells containing 100 μl of medium. The plates were then incubated for 1 hour at 37° C. Cells were then washed 4 times with D-PBS to remove excess calcein not taken up by cells. The plate was read using a Millipore plate reading fluorimeter (Cytofluor 2350) at emission=485 nm and excitation=538 nm. After subtraction of blank values (wells containing medium but no cells), relative fluorescent values reflect a quantitative measurement of cell survival. […]

[4] = test system: Du-Pro1; experiment: growth inhibition of Du-Pro1 prostate cancer cells (calcein fluorescence); type: cell-based; conditions: Homo sapiens, 72 h, read-out: Du-Pro1 IC50
Procedure: as §1, §2
(§3) Calcein AM (Molecular Probes, Eugene, Oreg.), an analog of the viable dye fluorescein diacetate, is taken up by cells and cleaved intracellularly to fluorescent salts that are retained by intact membranes of viable cells. This method thus provides a reliable and quantitative measurement of cell survival. Calcein AM was diluted 2× in Dulbeccos phosphate buffered saline (D-PBS) to 2× the final assay concentration (6 μM) and 100 μl was added to culture wells containing 100 μl of medium. The plates were then incubated for 1 hour at 37° C. Cells were then washed 4 times with D-PBS to remove excess calcein not taken up by cells. The plate was read using a Millipore plate reading fluorimeter (Cytofluor 2350) at emission=485 nm and excitation=538 nm. After subtraction of blank values (wells containing medium but no cells), relative fluorescent values reflect a quantitative measurement of cell survival.
(§4) The number of cells in the wells containing functional derivatives was compared to the number of cells in the control wells. The concentration which inhibited cell growth by 50% was calculated and is referred to as the "IC50 ".

[5] = test system: DU-145; experiment: growth inhibition of DU-145 prostate cancer cells (calcein fluorescence); type: cell-based; conditions: Homo sapiens, DU-145, 72 h, read-out: DU-145 C50
Procedure: as §1, §2, §3, §4

[6] = test system: Tsu-Pr1; experiment: growth inhibition of Tsu-Pr1 prostate cancer cells (calcein fluorescence); type: cell-based; conditions: Homo sapiens, TSU-Pr1, 72 h, read-out: Tsu-Pr1 IC50
Procedure: as §1, §2, §3, §4

T1 sequence (P35739 33-799): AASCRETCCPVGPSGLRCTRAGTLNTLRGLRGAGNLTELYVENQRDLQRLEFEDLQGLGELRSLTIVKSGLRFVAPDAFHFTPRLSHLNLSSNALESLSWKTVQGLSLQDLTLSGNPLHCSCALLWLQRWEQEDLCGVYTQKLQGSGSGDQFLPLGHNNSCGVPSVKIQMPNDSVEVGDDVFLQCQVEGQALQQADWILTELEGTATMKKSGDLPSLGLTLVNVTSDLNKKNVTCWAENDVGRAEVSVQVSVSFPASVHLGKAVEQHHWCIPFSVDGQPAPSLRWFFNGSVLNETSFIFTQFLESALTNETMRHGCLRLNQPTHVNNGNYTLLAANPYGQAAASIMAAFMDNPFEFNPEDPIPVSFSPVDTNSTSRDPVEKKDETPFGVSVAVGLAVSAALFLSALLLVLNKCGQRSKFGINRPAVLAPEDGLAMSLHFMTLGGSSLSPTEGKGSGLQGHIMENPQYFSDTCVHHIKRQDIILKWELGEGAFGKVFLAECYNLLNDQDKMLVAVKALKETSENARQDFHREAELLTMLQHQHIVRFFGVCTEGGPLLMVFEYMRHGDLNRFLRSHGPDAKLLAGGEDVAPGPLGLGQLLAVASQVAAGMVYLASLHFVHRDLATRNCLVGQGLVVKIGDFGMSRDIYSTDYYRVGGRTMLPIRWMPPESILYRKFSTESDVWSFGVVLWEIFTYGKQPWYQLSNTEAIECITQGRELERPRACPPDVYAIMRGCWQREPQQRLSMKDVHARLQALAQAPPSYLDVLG

Compound | trk 100 nM (inhibition of phosphorylation) ([2]; 100 nM compound) | trk 500 nM (inhibition of phosphorylation) [2] | further results
COC(=O)C1(O)CC2OC1(C)n1c3ccccc3c3c4c(c5c6cc(O)ccc6n2c5c31)C(=O)NC4 (stereo not shown) [Compound I-5] | + |  | inhibiting growth of AT-2.1 tumors ([1]; approximately): 50-60%; Tumor volume Day 0 ([1]; vehicle 2.73 ± 0.50): 2.70 ± 1.06 cm^3; Tumor volume Day 3 ([1]; vehicle 6.66 ± 1.48): 5.64 ± 1.32 cm^3; Tumor volume Day 8 ([1]; vehicle 21.0 ± 3.0): 10.7 ± 2.9 cm^3; Tumor volume Day 13 ([1]; vehicle 37.3 ± 4.0): 19.8 ± 5.6 cm^3; Tumor volume Day 16 ([1]; vehicle 58.7 ± 5.0): 24.6 ± 6.2 cm^3; potency in inhibiting prostate cell line growth, in words [3]: most potent compounds in inhibiting growth in all four cell lines; IC50 [4]: 60 nM; IC50 [5]: 80 nM; IC50 [6]: 70 nM
C[S+]([O-])CC1(O)CC2OC1(C)n1c3ccccc3c3c4c(c5c6ccccc6n2c5c31)C(=O)NC4 (stereo not shown) [Compound I-8] | - | + | IC50 ([6]; 3 days incubation): 540 nM
CN1CC2(CC3OC2(C)n2c4ccccc4c4c5c(c6c7ccccc7n3c6c42)C(=O)NC5)OC1=O (stereo not shown) [Compound I-15] | + |  | IC50 ([6]; 3 days incubation): 510 nM
CN(C)CC1(O)CC2OC1(C)n1c3ccccc3c3c4c(c5c6ccccc6n2c5c31)C(=O)NC4 (stereo not shown) [Compound I-16] | + |  | IC50 ([6]; 3 days incubation): 210 nM
CC12OC(CC1(O)CSC1O[C@H](CO)[C@@H](O)[C@H](O)[C@H]1O)n1c3ccccc3c3c4c(c5c6ccccc6n2c5c31)CNC4=O (stereo partly shown) [Compound I-20] | - | + | phosphorylation response (FIG. 1, spot) ([2]; 100 nM compound, NGF, Western blot FIG. 1): somewhat diminished (a smaller spot was seen); IC50 ([6]; 3 days incubation): 5700 nM
COC(=O)C1(O)CC2OC1(C)n1c3ccccc3c3c4c(c5c6ccccc6n2c5c31)C(=O)NC4=O (stereo not shown) [Compound I-22] | + |  | IC50 ([6]; 3 days incubation): 690 nM
CC12OC(CC1(O)CO)n1c3ccc(Br)cc3c3c4c(c5c6cc(Br)ccc6n2c5c31)CNC4=O (stereo not shown) [Compound I-42] | + | + | IC50 ([6]; 3 days incubation): 90 nM
COC(=O)C1(O)CC2OC1(C)n1c3ccccc3c3c4c(c5c6cc(C7SCCS7)ccc6n2c5c31)C(=O)NC4 (stereo not shown) [Compound I-59] | - | + | 
COC(=O)C1(O)CC2OC1(C)n1c3ccccc3c3c4c(c5c6cc(CSc7ccccn7)ccc6n2c5c31)C(=O)NC4 (stereo not shown) [Compound I-60] | - | + | 
COC(=O)C1(O)CC2OC1(C)n1c3ccccc3c3c4c(c5c6cc(C=NNC7=NCCN7)ccc6n2c5c31)C(=O)NC4 (stereo not shown) [Compound I-61] | - | + | 
COC(=O)C1(O)CC2OC1(C)n1c3ccccc3c3c4c(c5c6cc(CSc7ncccn7)ccc6n2c5c31)C(=O)NC4 (stereo not shown) [Compound I-62] | + | + | 
COC(=O)C1(O)CC2OC1(C)n1c3ccccc3c3c4c(c5c6cc(C[S+]([O-])c7ncccn7)ccc6n2c5c31)C(=O)NC4 (stereo not shown) [Compound I-63] | - | + | 
COC(=O)C1(O)CC2OC1(C)n1c3ccccc3c3c4c(c5c6cc(C[S+]([O-])c7ccccn7)ccc6n2c5c31)C(=O)NC4 (stereo not shown) [Compound I-64] | - | + | 
CCSCc1ccc2c(c1)c1c3c(c4c5cc(CO)ccc5n5c4c1n2C1CC(O)(C(=O)OC)C5(C)O1)CNC3=O (stereo not shown) [Compound I-65] | - | + | 
CC[S+]([O-])Cc1ccc2c(c1)c1c3c(c4c5cc(C[S+]([O-])CC)ccc5n5c4c1n2C1CC(O)(C(=O)OC)C5(C)O1)CNC3=O (stereo not shown) [Compound I-66] | - | + | 
COC(=O)C1(O)CC2OC1(C)n1c3ccccc3c3c4c(c5c6cc(CSc7nc8ccccc8[nH]7)ccc6n2c5c31)C(=O)NC4 (stereo not shown) [Compound I-67] | + | + | 
COC(=O)C1(O)CC2OC1(C)n1c3ccccc3c3c4c(c5c6cc(CSCc7ccco7)ccc6n2c5c31)C(=O)NC4 (stereo not shown) [Compound I-68] | - | + | 
COC(=O)C1(O)CC2OC1(C)n1c3ccccc3c3c4c(c5c6cc(C=NN7CCCC7)ccc6n2c5c31)C(=O)NC4 (stereo not shown) [Compound I-69] | + | + | 
COC(=O)C1(O)CC2OC1(C)n1c3ccccc3c3c4c(c5c6cc(C=NNc7ccccn7)ccc6n2c5c31)C(=O)NC4 (stereo not shown) [Compound I-70] | + | + | 
COC(=O)C1(O)CC2OC1(C)n1c3ccccc3c3c4c(c5c6cc(CSCCN(C)C)ccc6n2c5c31)C(=O)NC4 (stereo not shown) [Compound I-71] | - | + | 
COC(=O)C1(O)CC2OC1(C)n1c3ccccc3c3c4c(c5c6cc(CSc7nc[nH]n7)ccc6n2c5c31)C(=O)NC4 (stereo not shown) [Compound I-72] | - | + | 
COC(=O)C1(O)CC2OC1(C)n1c3ccccc3c3c4c(c5c6cc(C=NNC(=N)N)ccc6n2c5c31)C(=O)NC4 (stereo not shown) [Compound I-73] | + | + | 
COC(=O)C1(O)CC2OC1(C)n1c3ccccc3c3c4c(c5c6cc(C=NN7CCOCC7)ccc6n2c5c31)C(=O)NC4 (stereo not shown) [Compound I-74] | + | + | 
COC(=O)C1(O)CC2OC1(C)n1c3ccccc3c3c4c(c5c6cc(C=NN(C)C)ccc6n2c5c31)C(=O)NC4 (stereo not shown) [Compound I-75] |  | + | 
COC(=O)C1(O)CC2OC1(C)n1c3ccccc3c3c4c(c5c6cc(C=NN7CCN(C)CC7)ccc6n2c5c31)C(=O)NC4 (stereo not shown) [Compound I-76] |  | + | 
C=CCn1c2ccccc2c2c3c(c4c5ccccc5n(CC=C)c4c21)C(=O)NC3 [II-1] | - | + | 
O=C1NCc2c1c1c3ccccc3n(CCCO)c1c1c2c2ccccc2n1CCCO [II-4] |  | + | 
